Experimental data from US9408387B2, “Safening 6-amino-2-(substituted phenyl)-5-substituted-4-pyrimidinecarboxylate herbicide injury on cereal crops” (Dow AgroSciences LLC, priority 2009, dated 2016).

Assays:
Format in all cases: in vivo
[1] = system: bird's-eye speedwell (Veronica persica L; VERPE); test: Postemergence herbicidal activity, greenhouse, visual injury: bird's-eye speedwell
Protocol: (§1) Evaluation of Postemergence Herbicidal Safening in Cereal Crops
(§2) Seeds of the desired test plant species were planted in Sun Gro MetroMix® 306 planting mixture, which typically has a pH of 6.0 to 6.8 and an organic matter content of about 30 percent, in plastic pots with a surface area of 103.2 square centimeters (cm^2). When required to ensure good germination and healthy plants, a fungicide treatment and/or other chemical or physical treatment was applied. The plants were grown for 7-36 days (d) in a greenhouse with an approximate 14-hour (h) photoperiod which was maintained at about 18° C. during the day and 17° C. during the night. Nutrients and water were added on a regular basis and supplemental lighting was provided with overhead metal halide 1000-Watt lamps as necessary. The plants were employed for testing when they reached the second or third true leaf stage.
(§3) Treatments consisted of the acids or esters of compounds 1-10 and cloquintocet-mexyl (CQC-M), fenchlorazole-ethyl, mefenpyr-diethyl alone and in combination. Weighed amounts of acid or methyl esters of the compounds of formula (I) were dissolved in a volume of 97:3 v/v acetone/dimethylsulfoxide (DMSO) to obtain concentrated solutions. […] The concentrated solutions of the test compound were diluted with the addition of an aqueous mixture containing acetone, water, isopropyl alcohol, DMSO, Agri-Dex crop oil concentrate, and Triton® X-77 surfactant in a 64.7:26.0:6.7:2.0:0.7:0.01 v/v ratio. Test compounds were diluted to the appropriate application rate with a dilution solution which was prepared by mixing the appropriate volume of 97:3 v/v acetone/DMSO and the appropriate volume of an aqueous mixture containing acetone, water, isopropyl alcohol, DMSO, Agri-Dex crop oil concentrate, and Triton® X-77 surfactant in a 64.7:26.0:6.7:2.0:0.7:0.01 v/v ratio. Compound requirements are based upon a 12 mL application volume at a rate of 187 liters per hectare (L/ha). The concentrated solutions of the safener were prepared following the same procedure. Weighed amounts of safener were dissolved in a volume of 97:3 v/v acetone/DMSO to obtain concentrated safener solutions.
(§4) Spray solutions of the herbicide safener and test compound mixtures were prepared by adding the concentrated solutions to the appropriate amount of dilution solution to form 12 mL spray solution with active ingredients in combinations.
(§5) Formulated compounds were applied to the plant material with an overhead Mandel track sprayer equipped with 8002E nozzles calibrated to deliver 187 L/ha over an application area of 0.503 square meters (m^2) at a spray height of 18 inches (43 centimeters (cm)) above average plant canopy. Control plants were sprayed in the same manner with the solvent blank.
(§6) The treated plants and control plants were placed in a greenhouse as described above and watered by sub-irrigation to prevent wash-off of the test compounds. After 20-22 d, the condition of the test plants as compared with that of the control plants was determined visually and scored on a scale of 0 to 100 percent where 0 corresponds to no injury and 100 corresponds to complete kill.
(§7) Colby's equation was used to determine the herbicidal effects expected from the mixtures (Colby, S. R. Calculation of the synergistic and antagonistic response of herbicide combinations. Weeds 1967, 15, 20-22.).
(§8) The following equation was used to calculate the expected activity of mixtures containing two active ingredients, A and B: Expected=A+B−(A×B/100)
(§9) A=observed efficacy of active ingredient A at the same concentration as used in the mixture.
(§10) B=observed efficacy of active ingredient B at the same concentration as used in the mixture.

[2] = system: winter barley (Hordeum vulgare L; HORVW); test: Postemergence herbicidal safening in cereal crops, greenhouse, visual injury: winter barley; conditions: 20-22 d
Protocol: as §1, §2, §3, §4, §5, §6, §7, §8, §9, §10

[3] = system: kochia (Kochia scoparia L; KCHSC); test: Postemergence herbicidal activity, greenhouse, visual injury: kochia; conditions: for KCHSC Ob (visual injury): 20-22 d
Protocol: as §1, §2, §3, §4, §5, §6, §7, §8, §9, §10

[4] = system: durum wheat (Triticum durum L; TRZDU); test: Postemergence herbicidal safening in cereal crops, greenhouse, visual injury: durum wheat; conditions: 20-22 d
Protocol: as §1, §2, §3, §4, §5, §6, §7, §8, §9, §10

SASKR = test: Postemergence herbicidal activity, greenhouse, visual injury: SASKR; conditions: for SASKR Ob (visual injury): 20-22 d
Protocol: as §1, §2, §3, §4, §5, §6, §7, §8, §9, §10

[5] = Compound 10 0, CQC-M 8.75 g ae/ha
[6] = Compound 10 0, CQC-M 17.5 g ae/ha
[7] = Compound 10 0, CQC-M 35 g ae/ha
[8] = Compound 10 0, CQC-M 70 g ae/ha
[9] = Compound 10 0, CQC-M 140 g ae/ha

CCCCCC(C)OC(=O)COc1ccc(Cl)c2cccnc12 (stereo not drawn) [CQC-M, cloquintocet-mexyl, reference compound]
VERPE Ob (Observed values, % control) [1, 5]: 0%
VERPE Ob (Observed values, % control) [1, 6]: 0%
VERPE Ob (Observed values, % control) [1, 7]: 0%
VERPE Ob (Observed values, % control) [1, 8]: 0%
VERPE Ob (Observed values, % control) [1, 9]: 0%
VERPE Ob (visual injury) ([1]; safener alone 8.75 g/ha, 20-22 d): 0%
HORVW Ob (visual injury) ([2]; safener alone 0.547 g/ha): 0%
HORVW Ob (visual injury) ([2]; safener alone 2.1875 g/ha): 0%
HORVW Ob (visual injury) ([2]; safener alone 8.75 g/ha): 0%
HORVW Ob (visual injury) ([2]; safener alone 35 g/ha): 0%
HORVW Ob (visual injury) ([2]; safener alone 70 g/ha): 0%
HORVW Ob (visual injury) ([2]; safener alone 140 g/ha): 0%
KCHSC Ob (Observed values, % control) [3, 5]: 0%
KCHSC Ob (Observed values, % control) [3, 6]: 0%
KCHSC Ob (Observed values, % control) [3, 7]: 0%
KCHSC Ob (Observed values, % control) [3, 8]: 0%
KCHSC Ob (Observed values, % control) [3, 9]: 0%
KCHSC Ob (visual injury) ([3]; safener alone 8.75 g/ha): 0%
KCHSC Ob (visual injury) ([3]; safener alone 70 g/ha): 0%
KCHSC Ob (visual injury) ([3]; safener alone 140 g/ha): 0%
TRZDU Ob (visual injury) ([4]; safener alone 0.547 g/ha): 0%
TRZDU Ob (visual injury) ([4]; safener alone 2.1875 g/ha): 0%
TRZDU Ob (visual injury) ([4]; safener alone 8.75 g/ha): 0%
TRZDU Ob (visual injury) ([4]; safener alone 35 g/ha): 0%
TRZDU Ob (visual injury) ([4]; safener alone 70 g/ha): 15%
TRZDU Ob (visual injury) ([4]; safener alone 140 g/ha): 20%
SASKR Ob (Observed values, % control) (SASKR; [5]): 0%
SASKR Ob (Observed values, % control) (SASKR; [6]): 0%
SASKR Ob (Observed values, % control) (SASKR; [7]): 0%
SASKR Ob (Observed values, % control) (SASKR; [8]): 0%
SASKR Ob (Observed values, % control) (SASKR; [9]): 0%
SASKR Ob (visual injury) (SASKR; safener alone 70 g/ha): 0%
SASKR Ob (visual injury) (SASKR; safener alone 140 g/ha): 0%
